Experimental data as given in ChEMBL document CHEMBL4513161, “CO-ADD screening of MMV (CH) - Pandemic Response Box” (2021).
≈ marks a conversion by molar mass, not a printed value. Counter-ions that a name gives are not always drawn.

How the values were obtained:
HEK293 = assay: cells; format: functional, Homo sapiens, ATCC CRL1573; details: Homo sapiens, ATCC CRL1573, HEK293; ASSAY_TEST Inhibition of Cell Viability; detection method Resazurin; Fluorescence (ex560/em590); MEDIA DMEM with 10% FBS; plate type 384well; TC; CORNING #3712; time 18 hr; read-out: CC50
Pseudomonas aeruginosa [1] = assay: Antibacterial activity against Pseudomonas aeruginosa PAO397 [PAO1 d(mexAB-oprM) d(mexCD-oprJ) d(mexEF-oprN) d(mexJKL) d(mexXY) d(opmH)] (CO-ADD:GN_211); MIC in CAMBH media using NBS plates, by OD(600); format: functional; details: ASSAY_TEST Inhibition of Bacterial Growth, detection method Absorption (OD600), MEDIA CAMHB, plate type 384well, CORNING #3640, time 18 hr
Staphylococcus aureus = assay: microbe, parasite or virus in culture; details: ATCC 43300, 18 h, ASSAY_TEST Inhibition of Bacterial Growth, detection method Absorption (OD600), MEDIA CAMHB, plate type 384well, NBS, CORNING #3640
Description: Antibacterial activity against Staphylococcus aureus MRSA ATCC 43300 (CO-ADD:GP_020); MIC in CAMBH media, using NBS plates, by OD(600)

Escherichia coli = assay: microbe, parasite or virus in culture; details: ATCC 25922, 18 h, ASSAY_TEST Inhibition of Bacterial Growth, detection method Absorption (OD600), MEDIA CAMHB, plate type 384well, NBS, CORNING #3640
Description: Antibacterial activity against Escherichia coli ATCC 25922 (CO-ADD:GN_001); MIC in CAMBH media using NBS plates, by OD(600)

Klebsiella pneumoniae = assay: microbe, parasite or virus in culture; details: ATCC 700603, 18 h, ASSAY_TEST Inhibition of Bacterial Growth, detection method Absorption (OD600), MEDIA CAMHB, plate type 384well, NBS, CORNING #3640
Description: Antibacterial activity against Klebsiella pneumoniae MDR ATCC 70063 (CO-ADD:GN_003); MIC in CAMBH media using NBS plates, by OD(600)

Pseudomonas aeruginosa [2] = assay: microbe, parasite or virus in culture; details: ATCC 27853, 18 h, ASSAY_TEST Inhibition of Bacterial Growth, detection method Absorption (OD600), MEDIA CAMHB, plate type 384well, NBS, CORNING #3640
Description: Antibacterial activity against Pseudomonas aeruginosa ATCC 27853 (CO-ADD:GN_042); MIC in CAMBH media using NBS plates, by OD(600)

Acinetobacter baumannii = assay: microbe, parasite or virus in culture; details: ATCC 19606, 18 h, ASSAY_TEST Inhibition of Bacterial Growth, detection method Absorption (OD600), MEDIA CAMHB, plate type 384well, NBS, CORNING #3640
Description: Antibacterial activity against Acinetobacter baumannii ATCC 19606 (CO-ADD:GN_034); MIC in CAMBH media using NBS plates, by OD600

Candida albicans = assay: microbe, parasite or virus in culture; details: ATCC 90028, ASSAY_TEST Inhibition of Fungal Growth, detection method Absorption (OD530), plate type 384well, NBS, CORNING #3640
Description: Antifungal activity against Candida albicans ATCC 90028 (CO-ADD:FG_001); MIC in YNB media using NBS plates, by OD630

Description for Cryptococcus neoformans: Antifungal activity against Cryptococcus neoformans H99 ATCC 208821 (CO-ADD:FG_002); MIC in YNB media using NBS plates, by Resazurin OD(600-570)

SMILES | MIC (Pseudomonas aeruginosa [1]) [µM] | MIC (Cryptococcus neoformans) [µM] | MIC (Staphylococcus aureus) [µM] | MIC (Escherichia coli) [µM] | MIC (Klebsiella pneumoniae) [µM] | MIC (Pseudomonas aeruginosa [2]) [µM] | MIC (Acinetobacter baumannii) [µM] | MIC (Candida albicans) [µM] | CC50 (HEK293) [µM]
N[C@@H]1CN(c2c(F)cc3c(=O)c(C(=O)O)cn([C@@H]4C[C@@H]4F)c3c2Cl)CC12CC2 [SITAFLOXACIN ANHYDROUS] | ≤ 0.156 | > 20 | 0.312 (≈ 0.128 µg/mL) | ≤ 0.156 | 5 (≈ 2.05 µg/mL) | 2.5 (≈ 1.02 µg/mL) | 5 (≈ 2.05 µg/mL) | > 20 | > 20
C[C@@H]1O[C@@H]1P(=O)(O)O | > 20 | > 20 | > 20 | > 20 | > 20 | > 20 | > 20 | > 20 | > 20
O=C1NC(=O)C(Br)=C1Br | > 20 | 10 (≈ 2.55 µg/mL) | > 20 | > 20 | > 20 | > 20 | > 20 | 20 (≈ 5.1 µg/mL) | 3.28
CCN(CC)S(=O)(=O)c1ccc(Cl)c(C(=O)Nc2sc3c(c2C#N)CCCC3)c1 | > 20 | > 20 | > 20 | > 20 | > 20 | > 20 | > 20 | > 20 | > 20
O=C(NCc1cccc2ccccc12)c1cccs1 | > 20 | > 20 | > 20 | > 20 | > 20 | > 20 | > 20 | > 20 | > 20
CCCCCCCCC(CP(=O)(O)C(C)N)C(=O)O (stereo not drawn) | > 20 | > 20 | > 20 | > 20 | > 20 | > 20 | > 20 | > 20 | > 20
Nc1nc(F)nc2c1ncn2[C@H]1O[C@@H](CO)[C@H](O)[C@@H]1O | > 20 | > 20 | > 20 | > 20 | > 20 | > 20 | > 20 | > 20 | 0.535
CC(C)Nc1nc2cc(Cl)c(Cl)cc2n1[C@H]1O[C@@H](CO)[C@H](O)[C@@H]1O [MARIBAVIR] | > 20 | > 20 | > 20 | > 20 | > 20 | > 20 | > 20 | > 20 | > 20
CC(=O)O[C@H]1C[C@@]2(C)[C@@H](C[C@@H](O)[C@H]3[C@@]4(C)CC[C@@H](O)[C@@H](C)[C@@H]4CC[C@@]32C)/C1=C(\CCC=C(C)C)C(=O)O [FUSIDIC ACID] | > 20 | > 20 | 0.312 (≈ 0.161 µg/mL) | > 20 | > 20 | > 20 | > 20 | > 20 | > 20
NS(=O)(=O)c1ccc(NC(=O)NC(c2ccccc2)c2ccccc2)cc1 | > 20 | > 20 | > 20 | > 20 | > 20 | > 20 | > 20 | > 20 | > 20
C[C@@]1(O)[C@H](O)[C@@H](CO)O[C@H]1n1ccc2c(N)ncnc21 [BETA-2'-C-METHYL-7-DEAZA-ADENOSINE] | > 20 | > 20 | > 20 | > 20 | > 20 | > 20 | > 20 | > 20 | > 20
CSC[C@H]1CN(Cc2c[nH]c3c(N)ncnc23)C[C@@H]1O | > 20 | > 20 | > 20 | > 20 | > 20 | > 20 | > 20 | > 20 | > 20
CC1=C(/C=C/C(C)=C/C=C/C(C)=C/C(=O)Nc2ccc(O)cc2)C(C)(C)CCC1 [FENRETINIDE] | > 20 | > 20 | > 20 | > 20 | > 20 | > 20 | > 20 | > 20 | > 20
CSc1ccc2c(c1)C(N1CCN(C)CC1)Cc1ccccc1S2 (stereo not drawn) [METITEPINE] | > 20 | > 20 | > 20 | > 20 | > 20 | > 20 | > 20 | > 20 | > 20

Now from value to compound, other results behind:

MIC (Pseudomonas aeruginosa [1]) [µM] | MIC (Cryptococcus neoformans) [µM] | MIC (Staphylococcus aureus) [µM] | MIC (Escherichia coli) [µM] | MIC (Klebsiella pneumoniae) [µM] | MIC (Pseudomonas aeruginosa [2]) [µM] | MIC (Acinetobacter baumannii) [µM] | MIC (Candida albicans) [µM] | SMILES | CC50 (HEK293) [µM]
> 20 | > 20 | > 20 | > 20 | > 20 | > 20 | > 20 | > 20 | CCOc1ccc(/C=N/NC(=O)C2CC2c2ccc(C(C)(C)C)cc2)cc1OCC (stereo not drawn) | > 20
> 20 | > 20 | > 20 | > 20 | > 20 | > 20 | > 20 | > 20 | Cc1cc(CCOc2c(C)cc(-c3nnn(C)n3)cc2C)on1 | > 20
> 20 | > 20 | > 20 | > 20 | > 20 | > 20 | > 20 | > 20 | CCOc1ccc(C(=O)NCCc2ccccc2)cc1 | > 20
> 20 | > 20 | > 20 | > 20 | > 20 | > 20 | > 20 | > 20 | CC(=N)N1CC[C@H](SC2=C(C(=O)O)N3C(=O)[C@@H]([C@@H](C)O)[C@H]3C2)C1 | > 20
> 20 | > 20 | > 20 | > 20 | > 20 | > 20 | > 20 | > 20 | CC(C)(C)NC(=O)[C@@H]1C[C@@H]2CCCC[C@@H]2CN1C[C@@H](O)[C@H](Cc1ccccc1)NC(=O)[C@H](CC(N)=O)NC(=O)c1ccc2ccccc2n1 | > 20
> 20 | > 20 | > 20 | > 20 | > 20 | > 20 | > 20 | > 20 | COc1cc(C2C3=C(CC(C)(C)CC3=O)Nc3ccccc3N2C(C)=O)ccc1OCc1ccccc1 (stereo not drawn) | > 20
> 20 | > 20 | > 20 | > 20 | > 20 | > 20 | > 20 | > 20 | CCNC(=O)Nc1cc(-c2ccccc2)c(-c2cncc(C(=O)O)c2)cn1 | > 20
> 20 | > 20 | > 20 | > 20 | > 20 | > 20 | > 20 | > 20 | CC(N)C12CC3CC(CC(C3)C1)C2 (stereo not drawn) [RIMANTADINE HYDROCHLORIDE] | > 20
> 20 | > 20 | > 20 | > 20 | > 20 | > 20 | > 20 | 5 (≈ 0.842 µg/mL) | OB1OCc2cc(Cl)ccc21 [AN-2718] | > 20
2.5 (≈ 1.29 µg/mL) | > 20 | ≤ 0.156 | > 20 | > 20 | > 20 | > 20 | > 20 | C=C[C@]1(C)C[C@@H](OC(=O)CS[C@@H]2C[C@H]3CC[C@@H](C2)N3C)[C@]2(C)[C@H](C)CC[C@]3(CCC(=O)[C@H]32)[C@@H](C)[C@@H]1O [RETAPAMULIN] | > 20
> 20 | > 20 | > 20 | > 20 | > 20 | > 20 | > 20 | > 20 | CC(C)Nc1ncnc2c1cnn2-c1ccc(Cl)cc1 | > 20
> 20 | > 20 | 20 (≈ 5.05 µg/mL) | > 20 | > 20 | > 20 | > 20 | > 20 | CCc1nc(N)nc(N)c1C#CCc1ccccc1 | > 20
> 20 | > 20 | > 20 | > 20 | > 20 | > 20 | > 20 | > 20 | O=C(c1cc(O)nc2ccccc12)N1CCN(c2ccccc2)CC1 | > 20
